Test results as given in patent publication US20060069132A1, “Azolecarboxamide herbicides” (priority 2004, published 2006).

Key:
giant foxtail = experiment: Test B pre-/postemergence herbicide test; format: in vivo, Setaria faberi; conditions: for Foxtail, Giant plant response rating (0 to 100 scale): 0 = no effect, 100 = complete control; for Foxtail, Giant plant response rating (0 to 100 scale) / Plant response rating, Foxtail, Giant: preemergence; for Plant response rating, Foxtail, Giant: visual rating 0-100, 0 no effect, 100 complete control; for Foxtail, Giant plant response rating: postemergence, visual rating, scale 0 (no effect) to 100 (complete control)
Outline: (§1)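 Test chemicals in a non-phytotoxic solvent mixture with surfactant were applied preemergence to seeded species and postemergence to plants 2-18 cm tall (1- to 4-leaf stage); rice and barnyardgrass were also tested in a flooded paddy at the 2-leaf stage. Visual rating versus controls after 13-15 days in greenhouse, scale 0 (no effect) to 100 (complete control).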

velvetleaf = experiment: Test B pre-/postemergence herbicide test; format: in vivo, Abutilon theophrasti; conditions: for Velvetleaf plant response rating (0 to 100 scale): 0 = no effect, 100 = complete control; for Velvetleaf plant response rating (0 to 100 scale) / Plant response rating, Velvetleaf: preemergence; for Plant response rating, Velvetleaf: visual rating 0-100, 0 no effect, 100 complete control; for Velvetleaf plant response rating: postemergence, visual rating, scale 0 (no effect) to 100 (complete control)
Outline: as §1

rice = experiment: Test B flooded paddy test; format: in vivo, Oryza sativa; conditions: 1000 g ai/ha, visual rating, scale 0 to 100 (0 no effect, 100 complete control), 13 to 15 days
Outline: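 Paddy species grown to the 2-leaf stage under flooding; blackgrass sprayed postemergence at 2–18 cm (1- to 4-leaf stage). Plants kept in a greenhouse for 13 to 15 days, then visually rated against controls on 0 (no effect) to 100 (complete control).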

Surinam grass = experiment: Test B pre-/postemergence herbicide test; format: in vivo, Urochloa decumbens; conditions: for Surinam Grass plant response rating (0 to 100 scale): 0 = no effect, 100 = complete control; for Surinam Grass plant response rating (0 to 100 scale) / Plant response rating, Surinam Grass: preemergence; for Plant response rating, Surinam Grass: visual rating 0-100, 0 no effect, 100 complete control; for Surinam Grass plant response rating: postemergence, visual rating, scale 0 (no effect) to 100 (complete control)
Outline: as §1

barnyardgrass [1] = experiment: Test B flooded paddy test; format: in vivo, Echinochloa crus-galli; conditions: 1000 g ai/ha, visual rating, scale 0 to 100 (0 no effect, 100 complete control), 13 to 15 days
Outline: (§2)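 Postemergence plants were sprayed with formulated test chemicals at 2 to 18 cm height (1- to 4-leaf stage); paddy species were grown to the 2-leaf stage. After 13 to 15 days in a greenhouse, injury was rated visually against untreated controls on a 0–100 scale (0 = no effect, 100 = complete control).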

pigweed = experiment: Test B pre-/postemergence herbicide test; format: in vivo, Amaranthus retroflexus; conditions: for Pigweed plant response rating (0 to 100 scale): 0 = no effect, 100 = complete control; for Pigweed plant response rating (0 to 100 scale) / Plant response rating, Pigweed: preemergence; for Plant response rating, Pigweed: visual rating 0-100, 0 no effect, 100 complete control; for Pigweed plant response rating: postemergence, visual rating, scale 0 (no effect) to 100 (complete control)
Outline: as §1

morningglory = experiment: Test B pre-/postemergence herbicide test; format: in vivo, Ipomoea coccinea; conditions: for Morningglory plant response rating (0 to 100 scale): 0 = no effect, 100 = complete control; for Morningglory plant response rating (0 to 100 scale) / Plant response rating, Morningglory: preemergence; for Plant response rating, Morningglory: visual rating 0-100, 0 no effect, 100 complete control; for Morningglory plant response rating: postemergence, visual rating, scale 0 (no effect) to 100 (complete control)
Outline: (§3)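 Seeds were planted and treated preemergence with compounds formulated in a non-phytotoxic solvent mixture containing surfactant, while plants at the 1- to 4-leaf stage (2 to 18 cm) received postemergence sprays. Flooded paddy plants were grown to the 2-leaf stage. After 13 to 15 days in a greenhouse, injury was visually rated 0–100 against untreated controls.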

cocklebur = experiment: Test B pre-/postemergence herbicide test; format: in vivo, Xanthium strumarium; conditions: for Cocklebur plant response rating (0 to 100 scale): 0 = no effect, 100 = complete control; for Cocklebur plant response rating (0 to 100 scale) / Plant response rating, Cocklebur: preemergence; for Plant response rating, Cocklebur: visual rating 0-100, 0 no effect, 100 complete control; for Cocklebur plant response rating: postemergence, visual rating, scale 0 (no effect) to 100 (complete control)
Outline: as §3

large crabgrass = experiment: Test B pre-/postemergence herbicide test; format: in vivo, Digitaria sanguinalis; conditions: for Crabgrass, Large plant response rating (0 to 100 scale): 0 = no effect, 100 = complete control; for Crabgrass, Large plant response rating (0 to 100 scale) / Plant response rating, Crabgrass, Large: preemergence; for Plant response rating, Crabgrass, Large: visual rating 0-100, 0 no effect, 100 complete control; for Crabgrass, Large plant response rating: postemergence, visual rating, scale 0 (no effect) to 100 (complete control)
Outline: as §1

wheat = experiment: Test B postemergence herbicide test; format: in vivo, Triticum aestivum; set-up: key to Wheat plant response rating: 0 = no effect, 100 = complete control; conditions: postemergence, visual rating, scale 0 (no effect) to 100 (complete control)
Outline: as §2

barnyardgrass [2] = experiment: Test B pre-/postemergence herbicide test; format: in vivo, Echinochloa crus-galli; conditions: for Barnyardgrass plant response rating (0 to 100 scale): 0 = no effect, 100 = complete control; for Barnyardgrass plant response rating (0 to 100 scale) / Plant response rating, Barnyardgrass: preemergence; for Plant response rating, Barnyardgrass: visual rating 0-100, 0 no effect, 100 complete control; for Barnyardgrass plant response rating: postemergence, visual rating, scale 0 (no effect) to 100 (complete control)
Outline: as §3

corn = experiment: Test B pre-/postemergence herbicide test; format: in vivo, Zea mays; conditions: for Corn plant response rating (0 to 100 scale): 0 = no effect, 100 = complete control; for Corn plant response rating (0 to 100 scale) / Plant response rating, Corn: preemergence; for Plant response rating, Corn: visual rating 0-100, 0 no effect, 100 complete control; for Corn plant response rating: postemergence, visual rating, scale 0 (no effect) to 100 (complete control)
Outline: as §1

[3] = test system: small flower umbrella sedge; experiment: Test B flooded paddy test; format: in vivo, Cyperus difformis; conditions: 1000 g ai/ha, visual rating, scale 0 to 100 (0 no effect, 100 complete control), 13 to 15 days
Outline: as §2

lambsquarters = experiment: Test B pre-/postemergence herbicide test; format: in vivo, Chenopodium album; conditions: for Lambsquarters plant response rating (0 to 100 scale): 0 = no effect, 100 = complete control; for Lambsquarters plant response rating (0 to 100 scale) / Plant response rating, Lambsquarters: preemergence; for Plant response rating, Lambsquarters: visual rating 0-100, 0 no effect, 100 complete control; for Lambsquarters plant response rating: postemergence, visual rating, scale 0 (no effect) to 100 (complete control)
Outline: as §1

wild oat = experiment: Test B postemergence herbicide test; format: in vivo, Avena fatua; conditions: postemergence, visual rating, scale 0 (no effect) to 100 (complete control)
Outline: as §2

## C=CCNC(=O)c1cccc(NC(=O)c2sc(C(C)(C)C)nc2CC)c1 [Compound 207]
Giant foxtail; 125 g ai/ha
  Foxtail, Giant plant response rating (0 to 100 scale): 50
  Foxtail, Giant plant response rating: 20
Giant foxtail; 500 g ai/ha
  Plant response rating, Foxtail, Giant: 90
  Foxtail, Giant plant response rating: 20
velvetleaf; 125 g ai/ha
  Velvetleaf plant response rating (0 to 100 scale): 20
  Velvetleaf plant response rating: 20
velvetleaf; 500 g ai/ha
  Plant response rating, Velvetleaf: 60
  Velvetleaf plant response rating: 30
rice
  Rice plant response rating: 60
Surinam grass; 125 g ai/ha
  Surinam Grass plant response rating (0 to 100 scale): 40
  Surinam Grass plant response rating: 20
Surinam grass; 500 g ai/ha
  Plant response rating, Surinam Grass: 60
  Surinam Grass plant response rating: 20
Barnyardgrass [1]
  Barnyardgrass plant response rating: 80
pigweed; 125 g ai/ha
  Pigweed plant response rating (0 to 100 scale): 90
  Pigweed plant response rating: 30
pigweed; 500 g ai/ha
  Plant response rating, Pigweed: 100
  Pigweed plant response rating: 60
morningglory; 125 g ai/ha
  Morningglory plant response rating (0 to 100 scale): 20
  Morningglory plant response rating: 10
morningglory; 500 g ai/ha
  Plant response rating, Morningglory: 40
  Morningglory plant response rating: 20
cocklebur; 125 g ai/ha
  Cocklebur plant response rating (0 to 100 scale): 10
  Cocklebur plant response rating: 40
cocklebur; 500 g ai/ha
  Plant response rating, Cocklebur: 20
  Cocklebur plant response rating: 80
Large crabgrass; 125 g ai/ha
  Crabgrass, Large plant response rating (0 to 100 scale): 70
  Crabgrass, Large plant response rating: 20
Large crabgrass; 500 g ai/ha
  Plant response rating, Crabgrass, Large: 100
  Crabgrass, Large plant response rating: 20
wheat; 125 g ai/ha
  Wheat plant response rating: 20
wheat; 500 g ai/ha
  Wheat plant response rating: 20
Barnyardgrass [2]; 125 g ai/ha
  Barnyardgrass plant response rating (0 to 100 scale): 80
  Barnyardgrass plant response rating: 20
Barnyardgrass [2]; 500 g ai/ha
  Plant response rating, Barnyardgrass: 90
  Barnyardgrass plant response rating: 20
corn; 125 g ai/ha
  Corn plant response rating (0 to 100 scale): 10
  Corn plant response rating: 20
corn; 500 g ai/ha
  Plant response rating, Corn: 50
  Corn plant response rating: 20
[3]
  Sedge, Umbrella plant response rating: 80
lambsquarters; 125 g ai/ha
  Lambsquarters plant response rating (0 to 100 scale): 80
  Lambsquarters plant response rating: 50
lambsquarters; 500 g ai/ha
  Plant response rating, Lambsquarters: 100
  Lambsquarters plant response rating: 80
Wild oat; 125 g ai/ha
  Oat, Wild plant response rating: 20
Wild oat; 500 g ai/ha
  Oat, Wild plant response rating: 20

## CCNC(=O)c1cccc(NC(=O)c2sc(C(C)(C)C)nc2CC)c1 [Compound 210]
Giant foxtail; 125 g ai/ha
  Foxtail, Giant plant response rating (0 to 100 scale): 80
  Foxtail, Giant plant response rating: 20
Giant foxtail; 500 g ai/ha
  Plant response rating, Foxtail, Giant: 100
  Foxtail, Giant plant response rating: 30
velvetleaf; 125 g ai/ha
  Velvetleaf plant response rating (0 to 100 scale): 10
  Velvetleaf plant response rating: 30
velvetleaf; 500 g ai/ha
  Plant response rating, Velvetleaf: 70
  Velvetleaf plant response rating: 70
rice
  Rice plant response rating: 70
Surinam grass; 125 g ai/ha
  Surinam Grass plant response rating (0 to 100 scale): 60
  Surinam Grass plant response rating: 20
Surinam grass; 500 g ai/ha
  Plant response rating, Surinam Grass: 70
  Surinam Grass plant response rating: 30
Barnyardgrass [1]
  Barnyardgrass plant response rating: 80
pigweed; 125 g ai/ha
  Pigweed plant response rating (0 to 100 scale): 100
  Pigweed plant response rating: 40
pigweed; 500 g ai/ha
  Plant response rating, Pigweed: 100
  Pigweed plant response rating: 70
morningglory; 125 g ai/ha
  Morningglory plant response rating (0 to 100 scale): 20
  Morningglory plant response rating: 30
morningglory; 500 g ai/ha
  Plant response rating, Morningglory: 30
  Morningglory plant response rating: 70
cocklebur; 125 g ai/ha
  Cocklebur plant response rating (0 to 100 scale): 10
  Cocklebur plant response rating: 60
cocklebur; 500 g ai/ha
  Plant response rating, Cocklebur: 40
  Cocklebur plant response rating: 90
Large crabgrass; 125 g ai/ha
  Crabgrass, Large plant response rating (0 to 100 scale): 90
  Crabgrass, Large plant response rating: 20
Large crabgrass; 500 g ai/ha
  Plant response rating, Crabgrass, Large: 90
  Crabgrass, Large plant response rating: 20
wheat; 125 g ai/ha
  Wheat plant response rating: 20
wheat; 500 g ai/ha
  Wheat plant response rating: 20
Barnyardgrass [2]; 125 g ai/ha
  Barnyardgrass plant response rating (0 to 100 scale): 70
  Barnyardgrass plant response rating: 20
Barnyardgrass [2]; 500 g ai/ha
  Plant response rating, Barnyardgrass: 90
  Barnyardgrass plant response rating: 40
corn; 125 g ai/ha
  Corn plant response rating (0 to 100 scale): 20
  Corn plant response rating: 20
corn; 500 g ai/ha
  Plant response rating, Corn: 70
  Corn plant response rating: 60
[3]
  Sedge, Umbrella plant response rating: 80
lambsquarters; 125 g ai/ha
  Lambsquarters plant response rating (0 to 100 scale): 100
  Lambsquarters plant response rating: 70
lambsquarters; 500 g ai/ha
  Plant response rating, Lambsquarters: 100
  Lambsquarters plant response rating: 80
Wild oat; 125 g ai/ha
  Oat, Wild plant response rating: 20
Wild oat; 500 g ai/ha
  Oat, Wild plant response rating: 20
